From patent publication US4916214A, “Cationic complexes of technetium-99m” (Amersham International plc., priority 1987, dated 1990)
Read-outs that look alike come from different tables or passages of the source.

Tests used:
[1] = Animal biodistribution of 99mTc complexes in guinea pigs; format: in vivo, guinea pig;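 further: Heart, liver and kidney plus urine values are percent of the injected material, background-corrected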
Protocol: (§1) Percentage biodistribution of injected material was calculated (after correction for background) for all organs using the formula: [formula]
(§2) Since only samples of muscle and blood were taken, the percentage in these tissues was calculated assuming blood and muscle to represent 5.8 and 43% of total animal weight respectively using the formula: [formula]
Since only samples of muscle and blood were taken, the percentage in these tissues was calculated assuming blood and muscle to represent 5.8 and 43% of total animal weight respectively using the formula: [formula] where CF= 0.058 for blood

[2] = rat, in vivo
Protocol: (§3) In vivo biodistribution: 0.1 ml Tc^99m prep was injected i.v. into a laterial tail vein of 6 anaesthetised rats.
(§4) At 2 minutes and 60 minutes post-injection, 3 rats were sacrificed by decapitation, bled from the neck and dissected. The following organs were removed at dissection: kidney; bladder(+ urine), lung, liver, spleen, stomach, small intestine, large intestine, brain (weighed), heart (weighed), thyroid and samples of blood (weighed) and muscle (weighed), the residual carcass and the tail (injection site). Subsequently samples were counted in an automatic twin crystal gamma counter.
as §1, §2

[3] = Animal biodistribution of 99mTc complexes in rats (i.v. injection, organ counting); settings: Table VII, nitrosyl complex [Tc(NO)Cl2 L2 ]^- of the ligand, 60 min p.i.
Protocol: as §3, §4, §1, §2

[4] = guinea pig, 2 min p.i. in vivo, mean
[5] = guinea pig, 60 min p.i. in vivo, mean
[6] = Table VIII, [TcL3 ]^+ complex of the ligand, guinea pigs, 2 min p.i.
[7] = Table VIII, [TcL3 ]^+ complex of the ligand, guinea pigs, 60 min p.i.

COCC(COC)(CP(C)C)CP(C)C.COCC(COC)(CP(C)C)CP(C)C.O=[N][99Tc+][Cl].[Cl-] [Example 19]
Blood [1, 4]: 3.77 % injected dose/organ
Heart [1, 4]: 1.36 % injected dose/organ
Heart/Blood Counts/Gram ratio [1, 4]: 8.66
Heart/Liver Counts/Gram ratio [1, 4]: 2.20
Heart/Lung Counts/Gram ratio [1, 4]: 0.9
Heart/Muscle Counts/Gram ratio [1, 4]: 4.65
Kidney + Urine [1, 4]: 15.5 % injected dose/organ
Liver [1, 4]: 11.0 % injected dose/organ
Liver + GI [1, 4]: 35.0 % injected dose/organ
Lung [1, 4]: 1.57 % injected dose/organ
Muscle [1, 4]: 38.6 % injected dose/organ
Blood [1, 5]: 0.48 % injected dose/organ
Heart [1, 5]: 1.05 % injected dose/organ
Heart/Blood Counts/Gram ratio [1, 5]: 49.6
Heart/Liver Counts/Gram ratio [1, 5]: 17.5
Heart/Lung Counts/Gram ratio [1, 5]: 2.0
Heart/Muscle Counts/Gram ratio [1, 5]: 4.77
Kidney + Urine [1, 5]: 18.1 % injected dose/organ
Liver [1, 5]: 0.92 % injected dose/organ
Liver + GI [1, 5]: 45.9 % injected dose/organ
Lung [1, 5]: 0.52 % injected dose/organ
Muscle [1, 5]: 30.6 % injected dose/organ
Blood ([2]; 2 min): 2.05 % injected dose/organ
Heart ([2]; 2 min): 1.56 % injected dose/organ
Heart/Blood Counts/Gram ratio ([2]; 2 min): 10.9
Heart/Liver Counts/Gram ratio ([2]; 2 min): 1.56
Heart/Lung Counts/Gram ratio ([2]; 2 min): 1.8
Heart/Muscle Counts/Gram ratio ([2]; 2 min): 4.57
Kidney + Urine ([2]; 2 min): 8.94 % injected dose/organ
Liver ([2]; 2 min): 13.2 % injected dose/organ
Liver + GI ([2]; 2 min): 35.3 % injected dose/organ
Lung ([2]; 2 min): 1.33 % injected dose/organ
Muscle ([2]; 2 min): 36.2 % injected dose/organ
Blood ([2]; 60 min): 0.14 % injected dose/organ
Heart ([2]; 60 min): 1.47 % injected dose/organ
Heart/Blood Counts/Gram ratio ([2]; 60 min): 192
Heart/Liver Counts/Gram ratio ([2]; 60 min): 17.2
Heart/Lung Counts/Gram ratio ([2]; 60 min): 3.6
Heart/Muscle Counts/Gram ratio ([2]; 60 min): 5.6
Kidney + Urine ([2]; 60 min): 11.0 % injected dose/organ
Liver ([2]; 60 min): 1.03 % injected dose/organ
Liver + GI ([2]; 60 min): 45.5 % injected dose/organ
Lung ([2]; 60 min): 0.68 % injected dose/organ
Muscle ([2]; 60 min): 28.2 % injected dose/organ

CP(C)CCP(C)C [dmpe, di(dimethylphosphino) ethane, reference compound]
Heart [1, 6]: 0.53 % injected dose
Heart/Blood Counts/Gram ratio [1, 6]: 0.42
Heart/Liver Counts/Gram ratio [1, 6]: 0.30
Heart/Muscle Counts/Gram ratio [1, 6]: 6.11
Liver [1, 6]: 38.0 % injected dose
Heart [1, 7]: 0.38 % injected dose
Heart/Blood Counts/Gram ratio [1, 7]: 3.27
Heart/Liver Counts/Gram ratio [1, 7]: 0.13
Heart/Muscle Counts/Gram ratio [1, 7]: 4.12
Liver [1, 7]: 36.8 % injected dose
Heart/Liver Counts/Gram ratio [3]: 1.52
